The NIST ThermoML archive (doi:10.1016/j.tca.2012.03.001)

Key:
[1] = Liquid; for viscosity: 101 kPa; for mass density: 101.33 kPa, Pycnometric method
[2] = xn = mol fraction of the nth substance listed; conditions: 101 kPa, Liquid

CCOCCO [2-ethoxyethan-1-ol]
[1]
Conditions	mass density [kg/m3]	viscosity [mPa·s]
303.15 K	921.19	1.654
308.15 K	916.43	1.482
313.15 K	911.58	1.306
318.15 K	907.76	1.231
323.15 K	903.45	1.116

CCOCCO [2-ethoxyethan-1-ol] + NC=O
viscosity [mPa·s], [2]
Conditions	x2 = 0	x2 = 0.0975	x2 = 0.2009	x2 = 0.2984	x2 = 0.4047	x2 = 0.5054	x2 = 0.6055	x2 = 0.7092	x2 = 0.8063	x2 = 0.9074
303.15 K	1.654	1.996	2.306	2.58	2.873	3.162	3.409	3.509	3.495	3.306
308.15 K	1.482	1.79	2.017	2.24	2.49	2.735	2.968	3.043	3.007	2.867
313.15 K	1.306	1.564	1.786	1.986	2.221	2.466	2.659	2.718	2.692	2.583
318.15 K	1.231	1.437	1.599	1.751	1.957	2.154	2.298	2.363	2.353	2.202
323.15 K	1.116	1.281	1.415	1.533	1.709	1.891	2.041	2.1	2.094	1.954

COCCO [2-methoxyethan-1-ol]
[1]
Conditions	mass density [kg/m3]	viscosity [mPa·s]
303.15 K	955.72	1.421
308.15 K	951.11	1.249
313.15 K	946.27	1.173
318.15 K	941.64	1.079
323.15 K	936.88	0.9347

COCCO [2-methoxyethan-1-ol] + NC=O
[2], x2 = 0
Conditions	viscosity [mPa·s]
303.15 K	1.421
308.15 K	1.249
313.15 K	1.173
318.15 K	1.079
323.15 K	0.9347

NC=O [formamide]
[1]
Conditions	mass density [kg/m3]	viscosity [mPa·s]
303.15 K	1124.57	2.877
308.15 K	1120.19	2.544
313.15 K	1115.22	2.356
318.15 K	1110.95	2.061
323.15 K	1105.47	1.835

NC=O [formamide] + CCOCCO
[2], x1 = 1
Conditions	viscosity [mPa·s]
303.15 K	2.877
308.15 K	2.544
313.15 K	2.356
318.15 K	2.061
323.15 K	1.835

NC=O [formamide] + COCCO
viscosity [mPa·s], [2]
Conditions	x1 = 0.1785	x1 = 0.2723	x1 = 0.3849	x1 = 0.4862	x1 = 0.5726	x1 = 0.6651	x1 = 0.7492	x1 = 0.8363	x1 = 0.9138	x1 = 1
303.15 K	1.795	1.993	2.237	2.47	2.665	2.849	2.927	2.968	2.965	2.877
308.15 K	1.573	1.749	1.966	2.158	2.322	2.504	2.593	2.614	2.609	2.544
313.15 K	1.453	1.623	1.813	1.988	2.131	2.264	2.323	2.361	2.36	2.356
318.15 K	1.313	1.46	1.626	1.769	1.885	1.988	2.046	2.07	2.057	2.061
323.15 K	1.129	1.27	1.421	1.566	1.661	1.75	1.806	1.842	1.83	1.835
